ChEMBL document CHEMBL3885881, “DrugMatrix”

Species: Rattus norvegicus
Assay: DrugMatrix - Regimen: Daily Repeat
Format: toxicity, organism-based, Sprague-Dawley
Set-up: regimen Daily Repeat, gender Male, age 6-8 weeks
Details: in vivo, po, route oral GAVAGE, vehicle 100 % SALINE; for ABSOLUTE BASOPHIL / ABSOLUTE EOSINOPHIL / ABSOLUTE LYMPHOCYTE / ABSOLUTE MONOCYTE / ABSOLUTE SEGMENTED NEUTROPHIL / BASOPHIL / EOSINOPHIL / ERYTHROCYTE COUNT / HEMATOCRIT / HEMOGLOBIN / LEUKOCYTE COUNT / LYMPHOCYTE / MEAN CORPUSCULAR HEMOGLOBIN / MEAN CORPUSCULAR HEMOGLOBIN CONCENTRATION / MEAN CORPUSCULAR VOLUME / MONOCYTE / NEUTROPHIL / NUCLEATED RED BLOOD CELLS / PLATELET COUNT: tissue Blood; for ALANINE AMINOTRANSFERASE / ALBUMIN / ALKALINE PHOSPHATASE / ASPARTATE AMINOTRANSFERASE / BLOOD UREA NITROGEN / CARBON DIOXIDE / CHLORIDE / CHOLESTEROL / CREATINE PHOSPHOKINASE / CREATININE / GLUCOSE / LACTATE DEHYDROGENASE / LIPASE / PHOSPHORUS / POTASSIUM / SODIUM / TOTAL BILIRUBIN / TOTAL PROTEIN / URIC ACID: tissue Plasma
[1] = 0 mg/kg, 72 h, dose level Control, time 3 day
[2] = 0 mg/kg, 120 h, dose level Control, time 5 day
[3] = 59 mg/kg, 72 h, dose level Low, time 3 day

## NC(=O)NO [HYDROXYUREA]
[1]
  ABSOLUTE BASOPHIL: 0 CELLS/uL
  ABSOLUTE EOSINOPHIL: 16.17 CELLS/uL
  ABSOLUTE LYMPHOCYTE: 9117 CELLS/uL
  ABSOLUTE MONOCYTE: 16.17 CELLS/uL
  ABSOLUTE SEGMENTED NEUTROPHIL: 484 CELLS/uL
  BASOPHIL: 0%
  EOSINOPHIL: 0.17%
  ERYTHROCYTE COUNT: 5.19 x10E6/uL
  HEMATOCRIT: 34.9%
  HEMOGLOBIN: 13.35 G/DL
  LEUKOCYTE COUNT: 9.63 x10E3/uL
  LYMPHOCYTE: 94.5%
  MEAN CORPUSCULAR HEMOGLOBIN: 25.72 pg
  MEAN CORPUSCULAR HEMOGLOBIN CONCENTRATION: 38.25 G/DL
  MEAN CORPUSCULAR VOLUME: 67.22 fL
  MONOCYTE: 0.17%
  NEUTROPHIL: 5.17%
  NUCLEATED RED BLOOD CELLS: 0.33 /100WBC
  PLATELET COUNT: 1142 x10E3/uL
  ALANINE AMINOTRANSFERASE: 47.33 u/L
  ALBUMIN: 4.13 G/DL
  ALKALINE PHOSPHATASE: 320.33 u/L
  ASPARTATE AMINOTRANSFERASE: 76.17 u/L
  BLOOD UREA NITROGEN: 12.67 mg/dL
  CARBON DIOXIDE: 30.83 mmol/L
  CHLORIDE: 99 MEQ/L
  CHOLESTEROL: 74.17 mg/dL
  CREATINE PHOSPHOKINASE: 271 u/L
  CREATININE: 0.15 mg/dL
  GLUCOSE: 150.5 mg/dL
  LACTATE DEHYDROGENASE: 92.67 u/L
  LIPASE: 10 u/L
  PHOSPHORUS: 10.67 mg/dL
  POTASSIUM: 5.78 MEQ/L
  SODIUM: 142.83 MEQ/L
  TOTAL BILIRUBIN: 0.1 mg/dL
  TOTAL PROTEIN: 6.18 G/DL
  URIC ACID: 0.65 mg/dL
[2]
  ABSOLUTE BASOPHIL: 0 CELLS/uL
  ABSOLUTE EOSINOPHIL: 0 CELLS/uL
  ABSOLUTE LYMPHOCYTE: 8222.33 CELLS/uL
  ABSOLUTE MONOCYTE: 89.67 CELLS/uL
  ABSOLUTE SEGMENTED NEUTROPHIL: 471.33 CELLS/uL
  BASOPHIL: 0%
  EOSINOPHIL: 0%
  ERYTHROCYTE COUNT: 5.13 x10E6/uL
  HEMATOCRIT: 33.47%
  HEMOGLOBIN: 12.97 G/DL
  LEUKOCYTE COUNT: 8.78 x10E3/uL
  LYMPHOCYTE: 93%
  MEAN CORPUSCULAR HEMOGLOBIN: 25.3 pg
  MEAN CORPUSCULAR HEMOGLOBIN CONCENTRATION: 38.77 G/DL
  MEAN CORPUSCULAR VOLUME: 65.23 fL
  MONOCYTE: 1%
  NEUTROPHIL: 6%
  NUCLEATED RED BLOOD CELLS: 0 /100WBC
  PLATELET COUNT: 1298.5 x10E3/uL
  ALANINE AMINOTRANSFERASE: 56 u/L
  ALBUMIN: 3.98 G/DL
  ALKALINE PHOSPHATASE: 321.67 u/L
  ASPARTATE AMINOTRANSFERASE: 99.17 u/L
  BLOOD UREA NITROGEN: 13.8 mg/dL
  CARBON DIOXIDE: 29 mmol/L
  CHLORIDE: 98.67 MEQ/L
  CHOLESTEROL: 59.67 mg/dL
  CREATINE PHOSPHOKINASE: 363 u/L
  CREATININE: 0.24 mg/dL
  GLUCOSE: 167.83 mg/dL
  LACTATE DEHYDROGENASE: 120.83 u/L
  LIPASE: 22.5 u/L
  PHOSPHORUS: 11.6 mg/dL
  POTASSIUM: 5.62 MEQ/L
  SODIUM: 143 MEQ/L
  TOTAL BILIRUBIN: 0.17 mg/dL
  TOTAL PROTEIN: 5.95 G/DL
  URIC ACID: 0.87 mg/dL
[3]
  ABSOLUTE BASOPHIL: 0 CELLS/uL
  ABSOLUTE EOSINOPHIL: 15 CELLS/uL
  ABSOLUTE LYMPHOCYTE: 4978 CELLS/uL
  ABSOLUTE MONOCYTE: 44 CELLS/uL
  ABSOLUTE SEGMENTED NEUTROPHIL: 663 CELLS/uL
  BASOPHIL: 0%
  EOSINOPHIL: 0.33%
  ERYTHROCYTE COUNT: 5.08 x10E6/uL
  HEMATOCRIT: 33.63%
  HEMOGLOBIN: 12.83 G/DL
  LEUKOCYTE COUNT: 5.7 x10E3/uL
  LYMPHOCYTE: 87.67%
  MEAN CORPUSCULAR HEMOGLOBIN: 25.3 pg
  MEAN CORPUSCULAR HEMOGLOBIN CONCENTRATION: 38.17 G/DL
  MEAN CORPUSCULAR VOLUME: 66.27 fL
  MONOCYTE: 0.67%
  NEUTROPHIL: 11.33%
  NUCLEATED RED BLOOD CELLS: 0 /100WBC
  PLATELET COUNT: 1118 x10E3/uL
  ALANINE AMINOTRANSFERASE: 47.33 u/L
  ALBUMIN: 4.17 G/DL
  ALKALINE PHOSPHATASE: 328 u/L
  ASPARTATE AMINOTRANSFERASE: 73.67 u/L
  BLOOD UREA NITROGEN: 11.33 mg/dL
  CARBON DIOXIDE: 30 mmol/L
  CHLORIDE: 99 MEQ/L
  CHOLESTEROL: 75.33 mg/dL
  CREATINE PHOSPHOKINASE: 258 u/L
  CREATININE: 0.2 mg/dL
  GLUCOSE: 152 mg/dL
  LACTATE DEHYDROGENASE: 90 u/L
  LIPASE: 10 u/L
  PHOSPHORUS: 10.83 mg/dL
  POTASSIUM: 5.95 MEQ/L
  SODIUM: 142.63 MEQ/L
  TOTAL BILIRUBIN: 0.1 mg/dL
  TOTAL PROTEIN: 6.07 G/DL
  URIC ACID: 0.9 mg/dL
